# From patent US9416138B2, “Benzyl sulfonamide compounds useful as MoGAT-2 inhibitors” (Eli Lilly and Company, priority 2012, dated 2016)
# Counter-ions that a name gives are not always drawn.
# Legend:
# [1] = biological target: T1, human MoGAT-2 (Homo sapiens, UniProt Q3SYC2); test: Inhibitory Activity in MOGAT-2 Cell Assay (Caco-2 cells stably transfected with human MoGAT-2, HDG substrate, LC-MS); type: cell-based; set-up: expressed in transfected cells; details: Caco-2 cells expressing human MoGAT-2; 4 hours treatment with HDG/DOPC; read-out: C50 nM (Std Dev.; n*)
# Experimental: The inhibitory activity of compounds against human MoGAT-2 in a cell environment is evaluated in this assay. Caco-2 is a human colon carcinoma cell line and is often used as a model for intestinal epithelial cells. […] The substrate is delivered to cells using as a mixture with DOPC in the form of sonicated vesicles. Seed the Caco2 cells onto 100 mm dishes to be 80% confluent after 24 hours in complete media (3/1 DMEM: F12+10% FBS+20 mM HEPES+gentamicin). Transfect the cells with hMoGAT-2 plasmid (MOGAT-2-pCDNA3.1-Hygro) using Lipofectamine 2000 (Invitrogen). After a 6 hour exposure to the transfection mixture, wash the cells three times in PBS and then add media. Incubate the cells for an additional 18 hours incubation, trypsinize the cells and serially dilute them into 100 mm dishes. Add complete media+400 μg/ml hygromycin and incubate until clones appear. Isolate and transfer the clones into 24 well dishes and grow to confluency. Prepare the RNAs from these clones using a Qiagen RNAeasy kit. Perform Taqman analysis using an ABI inventoried assay (HS00228262) on a 7900 Sequence Detection System (ABI). Analyze the lysates from these clones by Western blot analysis using a goat polyclonal antibody (Santa Cruz, SC-32392 to confirm human MoGAT-2 expression of a 38 kD protein corresponding to MoGAT-2. […] Add 20 ml of buffer (150 mM Tris-Cl pH 7.4, 250 mM sucrose, 1 mM EDTA) to the dried HDG/DOPC mixture while sonicating until the solution becomes clear. Plate the Caco2 cells into a poly-D-lysine coated 96-well plate (the “Cell Plate”) at 37° C., 5% CO2 overnight. […] Trypsinize the cells with 50 μl of trypsin solution and add 50 μl of PBS. Immediately freeze the cells on dry ice and store at -20° C. for LC-MS analysis. Extract the cells with chloroform/methanol as follows: transfer the cells to a 2 ml plate; wash the cell plate with 200 μL methanol and then transfer the methanol wash to the 2 ml plate; wash the cell plate again with 200 μL PBS and transfer the PBS wash to the 2 ml plate. Add chloroform (400 μL) with an internal standard (19.52 ng/mL) DAG (15:0,15:0 (Sigma)), D5-TAG (39.03 ng/mL) CDN (16,16,16) to the 2 mL Plate. Turn the sealed 2 mL Plate up and down (10×), then vortex and spin. Remove 400 μL of the lower layer from the 2 mL plate and add to the wells of another plate the “Final Plate”. Add CHCl3:MeOH (400 μL 2:1) to the 2 mL Plate. Again turn the sealed 2 mL Plate up and down (10×), vortex and spin. Remove 220 μL of the lower layer from the 2 mL Plate and add to the Final Plate. Dry the Final Plate and reconstitute with […] of IPA. […] Monitor the channels to collect data for the D5 C16 TAG internal standard as well as the ether TAG, and […] and […] natural TAGs. Solvent A is 80/20 H2O/Methanol with 20 μM ammonium acetate. Solvent B is 50/50 IPA/THF with 20 μM ammonium acetate. Flow rate is 0.4 mL/min Wash solvents are H2O/MeOH and DCM. Using Xcalibur software extract the areas of the peaks of interest, and export the data to Excel which uses the following formula: (area of ether TAG/area of […] natural TAG)/Area of IS. This ratio effectively accounts for variance of cell number in each well.
# [2] = biological target: T1, human MoGAT-2; test: MOGAT-2 Inhibitory Assay (SF9 cell lysate, 14C-oleoyl-CoA, Microscint E extraction); type: biochemical; set-up: made in house; host or cells: insect SF9 cells (cell lysate supernatant); details: human MoGAT-2 expressed in SF9 cells, cell extract; 90 minutes at room temperature
# Experimental: The in vitro inhibitory activity of compounds against human MoGAT-2 is evaluated in this assay. MoGAT-2 transfers an oleoyl group to monooleoyl-glycerol (“MAG”) from oleoyl-CoA to form dioleoyl-glycerol (“DAG”) in the intestinal triglyceride resynthesis pathway. The assay takes advantage of Microscint E extraction, which extracts hydrophobic molecules selectively over hydrophilic ones to separate the ^14C-oleoyl-CoA from ^14C-DAG.
# Genetically engineered insect SF9 cells express human MoGAT-2. Prepare the cell lysate in 20 mM of NaCl with protease inhibitor (Roche Cat#11873580001). Homogenize the SF9 cells expressing human MoGAT-2 at 15,000 rpm for 20×2 seconds (PT-3100 Polytrone). Centrifuge the homogenate at 1000 g for 10 minutes at 4° C. Collect the supernatant into a separate tube for protein quantification and activity testing. Purify the glycerol monooleate substrate (Spectrum Chemical, CAS#25496-72-4) chromatographically. Prepare the monoacylglyerol (MAG) substrate in phospholipid vescicles (dioleoyl phosphatidylcholine “DOPC”). Prepare the MAG/DOPC vesicles at 20 mM concentration of total lipids (MAG and DOPC). Prepare different molar ratios of MAG to total lipids for either compound screening (8.9%) or compound kinetic studies (2.6-40%). Mix the appropriate amount of purified MAG and DOPC (Avanti Polar Lipids #850375C) in chloroform in a glass tube. […]
# [3] = test system: oil bolus-induced excursion of triglycerides in circulation; test: Dog Oil Bolus Model; type: in vivo, dog (male beagles); details: 10 mg/kg dose, olive oil bolus, plasma net TAG AUC, statistically significant (p<0.05)
# Description: Inhibiting MoGAT-2 found in the small intestine may be useful for treating hypertriglyceridemia caused by excessive fat intake Inhibition of MoGAT-2 disrupts resynthesis of triglycerides, which reduces secretion of triglycerides from the intestine. Therefore, MoGAT-2 inhibition interferes with a specific process that leads to eventual secretion of triglycerides into the intestine for eventual circulation through the body. To assess the ability of one or more of the exemplified compounds to inhibit MoGAT-2 induced TAG secretion into the intestine as measured in the blood system, the following protocol can be followed:
# Twenty one male beagles are enrolled for each study, each dog selected to have a body weight between 9-13 kg. […]
# The analyte is the [M+NH4]+ ion of TAG 18:1 18:1 18:1, which has a mass of 902.8 m/z; the internal standard is D5 TAG 16:0 16:0 16:0, which has a mass of 829.8 m/z. […] The percent inhibition of plasma triglyceride is calculated as follows: the (oil bolus group mean of net TAG AUC−oil bolus group mean of net TAG AUC with compound treatment/oil bolus group mean of net TAG AUC)*100. […] The ability of exemplified compounds of the present invention to inhibit MoGAT-2 activity and reduce TAG absorption in vivo can be further evaluated according to this assay.
# T1 sequence (Q3SYC2 whole entry): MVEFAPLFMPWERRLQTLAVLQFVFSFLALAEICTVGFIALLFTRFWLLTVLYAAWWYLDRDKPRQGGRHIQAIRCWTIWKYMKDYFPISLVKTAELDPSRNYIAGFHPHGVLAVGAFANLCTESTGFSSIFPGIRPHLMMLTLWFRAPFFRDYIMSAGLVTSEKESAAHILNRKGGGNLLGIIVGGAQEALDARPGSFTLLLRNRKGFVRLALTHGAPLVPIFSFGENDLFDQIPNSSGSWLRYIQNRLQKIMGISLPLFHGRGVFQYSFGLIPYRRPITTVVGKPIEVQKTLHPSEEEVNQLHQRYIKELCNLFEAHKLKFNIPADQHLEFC
structure (smiles),measurement,setting,value
"C[C@@H](NS(C)(=O)=O)c1ccc(CNCC2COc3ccccc3N2)cc1 (single isomer, unassigned; isomer 2) [Example 14]",IC50,[1],479 nM
"C[C@@H](NS(C)(=O)=O)c1ccc(CNC2CCN(c3ccccc3)C2)cc1 (single isomer, unassigned; isomer 2) [Example 19]",IC50,[1],105 nM
"C[C@@H](NS(C)(=O)=O)c1ccc(CNCC2COC(c3ccccc3)CO2)cc1 (single isomer, unassigned; isomer 2) [Example 29]",IC50,[1],294 nM
"CS(=O)(=O)N[C@@H](c1ccc(CNC[C@H]2COc3cccnc3O2)cc1)C(F)(F)F [Example 1, N-{(1S)-1-[4-({[(3S)-2,3-Dihydro[1,4]dioxino[2,3-b]pyridin-3-ylmethyl]amino}methyl)phenyl]-2,2,2-trifluoroethyl}methanesulfonamide hydrochloride]",IC50,[1],3.8 nM
same,IC50,[2],2.28 nM
"C[C@@H](NS(C)(=O)=O)c1ccc(CNC[C@H]2COc3cccnc3O2)cc1.Cl [Example 2, N-{(1R)-1-[4-({[(3S)-2,3-Dihydro[1,4]dioxino[2,3-b]pyridin-3-ylmethyl]amino}methyl)phenyl]ethyl}methanesulfonamide hydrochloride]",reduction in TAG 18.1_18.1_18.1,[3],67%
same,reduction in total triglycerides,[3],77%
"CS(=O)(=O)N[C@@H](c1ccc(CNCCN2CCc3ccccc3C2=O)cc1)C(F)(F)F [Example 31, N-{(1S)-2,2,2-Trifluoro-1-[4-({[2-(1-oxo-3,4-dihydroisoquinolin-2(1H)-yl)ethyl]amino}methyl)phenyl]ethyl}methanesulfonamide hydrochloride]",IC50,[1],266 nM
